Consider 26 compounds from patent publication US7858644B2, “EP4 receptor antagonists” (Asterand UK Limited, priority 2003, dated 2010).

Structures are written as SMILES.

One test has as its target T1, human EP3 receptor (Homo sapiens, UniProt P43115).
T1 construct: expressed in transfected cells
T1 sequence (P43115 1-390): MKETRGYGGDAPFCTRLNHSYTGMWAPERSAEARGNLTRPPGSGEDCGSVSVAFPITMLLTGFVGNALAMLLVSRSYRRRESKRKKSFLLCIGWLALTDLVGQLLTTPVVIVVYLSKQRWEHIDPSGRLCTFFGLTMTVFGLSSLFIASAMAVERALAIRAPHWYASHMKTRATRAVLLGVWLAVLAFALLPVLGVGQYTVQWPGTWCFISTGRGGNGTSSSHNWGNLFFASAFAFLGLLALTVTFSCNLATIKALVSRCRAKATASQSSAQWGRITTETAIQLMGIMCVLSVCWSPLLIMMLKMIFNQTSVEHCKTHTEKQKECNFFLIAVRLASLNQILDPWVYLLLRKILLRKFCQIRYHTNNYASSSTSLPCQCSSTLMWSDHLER
Put plainly: Binding ability to human EP3 receptor ([3H]PGE2 displacement). As to conditions: membranes from cells stably transfected with human EP receptor cDNA; [3H]PGE2 2.5 nM; Cheng-Prusoff from IC50; read-out: pKi EP3 (converted). An outline of the steps: (§1)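 Membranes from cells stably transfected with human EP receptor cDNA were incubated to equilibrium with [3H]PGE2 and compound (0.1 to 10 000 nM). Non-specific binding was defined with 10 uM PGE2; bound radioligand was separated by vacuum filtration and counted by scintillation.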

Another test has as its target T2, human EP2 receptor (Homo sapiens, UniProt P43116).
T2 construct: expressed in transfected cells
Put plainly: Binding ability to human EP2 receptor ([3H]PGE2 displacement). As to conditions: read-out: pKi EP2 (converted). An outline of the steps:
as §1

In another test the target is T3, human EP4 receptor (Homo sapiens, UniProt P35408).
T3 construct: expressed in transfected cells
Kind of test: Binding ability to human EP4 receptor ([3H]PGE2 displacement). As to conditions: read-out: pKi EP4 (converted). As to the method:
Membranes were prepared from cells stably transfected with human EP receptor cDNA. In brief, cells were cultured to confluency, scraped from culture flasks, and centrifuged (800 g, 8 minutes, 4° C.). Cells were twice washed in ice cold homogenisation buffer containing 10 mMTris-HCl, 1 mM EDTA. 2Na, 250 mM sucrose, 1 mM PMSF, 0.3 mM indomethacin, pH 7.4, homogenised and re-centrifuged as before. The supernatant was stored on ice and pellets re-homogenised and re-spun. Supernatants were pooled and centrifuged at 40000 g, 10 minutes, 4° C. Resultant membrane pellets were stored at −80° C. until use.
Incubations were performed at suitable temperatures and for suitable times to allow equilibrium to be reached. Non-specific binding was determined in the presence of 10 uM PGE2. Bound and free radiolabel was separated by vacuum manifold filtration using appropriate wash buffers, and bound radiolabel was determined by scintillation counting. Constituents of each of the buffers are included in table 1 below.
This approach follows that set out in Kenakin, T. P., Pharmacologic analysis of drug receptor interaction. Raven Press, New York, 2nd edition.

T2 sequence (P43116 whole entry): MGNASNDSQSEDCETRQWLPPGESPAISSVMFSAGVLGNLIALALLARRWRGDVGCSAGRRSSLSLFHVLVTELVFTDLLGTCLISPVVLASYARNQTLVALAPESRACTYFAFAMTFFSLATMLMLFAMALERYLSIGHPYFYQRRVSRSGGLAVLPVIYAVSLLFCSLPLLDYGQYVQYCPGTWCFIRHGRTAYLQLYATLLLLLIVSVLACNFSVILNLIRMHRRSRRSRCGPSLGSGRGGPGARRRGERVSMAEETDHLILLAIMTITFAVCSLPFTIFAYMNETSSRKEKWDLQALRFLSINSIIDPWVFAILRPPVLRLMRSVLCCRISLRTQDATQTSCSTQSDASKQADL
T3 sequence (P35408 whole entry): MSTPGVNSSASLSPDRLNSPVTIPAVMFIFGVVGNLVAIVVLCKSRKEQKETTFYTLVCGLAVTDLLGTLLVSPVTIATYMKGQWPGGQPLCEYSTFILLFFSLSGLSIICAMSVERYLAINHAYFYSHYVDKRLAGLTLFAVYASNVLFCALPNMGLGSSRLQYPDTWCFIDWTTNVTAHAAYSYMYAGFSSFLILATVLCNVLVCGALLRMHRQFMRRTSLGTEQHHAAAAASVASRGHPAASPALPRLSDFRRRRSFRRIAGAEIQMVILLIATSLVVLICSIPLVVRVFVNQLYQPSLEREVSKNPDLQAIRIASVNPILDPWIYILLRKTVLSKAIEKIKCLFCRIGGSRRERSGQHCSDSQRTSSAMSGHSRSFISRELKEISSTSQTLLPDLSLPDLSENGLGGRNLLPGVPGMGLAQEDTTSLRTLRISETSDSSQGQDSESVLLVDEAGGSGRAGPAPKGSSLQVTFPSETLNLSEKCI

Consider `O=C(O)c1cc(COc2cccc(-c3ccccc3)c2)c(C(F)(F)F)o1` [Compound 91, 4-(Biphenyl-3-yloxymethyl)-5-trifluoromethyl-furan-2-carboxylic acid], for which the Ki was above 10 µM on human EP3 receptor, above 10 µM on human EP2 receptor and below 3.16 µM on human EP4 receptor.
Take `O=C(O)c1cc(COc2ccc3oc4ccccc4c3c2)c(C(F)(F)F)o1` [Compound 92, 4-(Dibenzofuran-2-yloxymethyl)-5-trifluoromethyl-furan-2-carboxylic acid]: the Ki at human EP3 receptor was above 10 µM; at human EP2 receptor, above 10 µM; at human EP4 receptor, below 3.16 µM.
`N#Cc1ccc(-c2ccc(OCc3cc(C(=O)O)oc3C(F)(F)F)cc2)cc1` [Compound 93, 4-(4′-Cyano-biphenyl-4-yloxymethyl)-5-trifluoromethyl-furan-2-carboxylic acid]: the Ki was above 10 µM at human EP3 receptor, above 10 µM at human EP2 receptor and below 3.16 µM on human EP4 receptor.
As to `COc1ccc(-c2ccc(OCc3cc(C(=O)O)oc3C(F)(F)F)cc2)cc1` [Compound 94, 4-(4′-Methoxy-biphenyl-4-yloxymethyl)-5-trifluoromethyl-furan-2-carboxylic acid], the Ki on human EP3 receptor was above 10 µM; on human EP2 receptor, above 10 µM; at human EP4 receptor it was below 0.316 µM.
Turning to `O=C(O)c1cc(COc2ccc3c(c2)oc2ccccc23)c(C(F)(F)F)o1` [Compound 95, 4-(Dibenzofuran-3-yloxymethyl)-5-trifluoromethyl-furan-2-carboxylic acid], the results for the Ki on human EP3 receptor, on human EP2 receptor and on human EP4 receptor were above 10 µM, above 3.16 µM and below 3.16 µM, respectively.
On the same counts, the results for `CCOc1ccc(-c2ccc(OCc3cc(C(=O)O)oc3C)cc2)cc1` [Compound 98, 4-(4′-Ethoxy-biphenyl-4-yloxymethyl)-5-methyl-furan-2-carboxylic acid] are above 10 µM, above 10 µM and below 0.316 µM.
In the case of `Cc1oc(C(=O)O)cc1COc1ccc(-c2ccccc2Cl)cc1` [Compound 99, 4-(2′-Chloro-biphenyl-4-yloxymethyl)-5-methyl-furan-2-carboxylic acid], the Ki was above 10 µM on human EP3 receptor, above 3.16 µM on human EP2 receptor and below 1 µM on human EP4 receptor.
`Cc1oc(C(=O)O)cc1COc1ccc(-c2c(F)cccc2F)cc1` [Compound 100, 4-(2′,6′-Difluoro-biphenyl-4-yloxymethyl)-5-methyl-furan-2-carboxylic acid]: the Ki at human EP3 receptor was above 10 µM; on human EP2 receptor, above 10 µM; at human EP4 receptor, below 3.16 µM.
`Cc1oc(C(=O)O)cc1COc1ccc(-c2ccccc2C(F)(F)F)cc1` [Compound 102, 5-Methyl-4-(2′-trifluoromethyl-biphenyl-4-yloxymethyl)-furan-2-carboxylic acid]: the figures for the Ki on human EP3 receptor, on human EP2 receptor and on human EP4 receptor were above 10 µM, above 3.16 µM and below 3.16 µM, respectively.
On the same counts, the results for `Cc1oc(C(=O)O)cc1COc1ccc(-c2cccc(F)c2)cc1` [Compound 104, 4-(3′-Fluoro-biphenyl-4-yloxymethyl)-5-methyl-furan-2-carboxylic acid] are above 10 µM, above 3.16 µM and below 1 µM.
With `CSc1ccccc1-c1ccc(OCc2cc(C(=O)O)oc2C)cc1` [Compound 105, 5-Methyl-4-(2′-methylsulfanyl-biphenyl-4-yloxymethyl)-furan-2-carboxylic acid], the Ki at human EP3 receptor is above 10 µM; at human EP2 receptor, above 10 µM; at human EP4 receptor it was below 3.16 µM.
`COc1ccc(-c2cccc(OCc3cc(C(=O)O)oc3C)c2)cc1OC` [Compound 108, 4-(3′,4′-Dimethoxy-biphenyl-3-yloxymethyl)-5-methyl-furan-2-carboxylic acid]: the Ki at human EP3 receptor was above 10 µM; at human EP2 receptor, above 10 µM; at human EP4 receptor it was below 3.16 µM.
In the case of `Cc1oc(C(=O)O)cc1COc1cccc(-c2cccc(C(F)(F)F)c2)c1` [Compound 109, 5-Methyl-4-(3′-trifluoromethyl-biphenyl-3-yloxymethyl)-furan-2-carboxylic acid], the Ki at human EP3 receptor was above 10 µM; at human EP2 receptor, above 10 µM; on human EP4 receptor, below 3.16 µM.
`CSc1ccc(-c2ccc(OCc3cc(C(=O)O)oc3C)cc2)cc1` [Compound 111, 5-Methyl-4-(4′-methylsulphanyl-biphenyl-4-yloxymethyl)-furan-2-carboxylic acid]: the Ki at human EP3 receptor was above 10 µM; on human EP2 receptor, above 10 µM; on human EP4 receptor, below 3.16 µM.
On to `Cc1oc(C(=O)O)cc1COc1ccc(-c2cccc(O)c2)cc1` [Compound 112, 4-(3′-Hydroxy-biphenyl-4-yloxymethyl)-5-methyl-furan-2-carboxylic acid], for which the Ki on human EP3 receptor is above 10 µM; on human EP2 receptor, above 10 µM; at human EP4 receptor, below 3.16 µM.
`Cc1oc(C(=O)O)cc1COc1ccc(-c2ccc(N(C)C)cc2)cc1` [Compound 113, 4-(4′-Dimethylamino-biphenyl-4-yloxymethyl)-5-methyl-furan-2-carboxylic acid]: the figures for the Ki at human EP3 receptor, on human EP2 receptor and at human EP4 receptor were above 10 µM, above 10 µM and below 10 µM, respectively.
Consider `Cc1oc(C(=O)O)cc1COc1ccc(-c2ccccc2OC(F)(F)F)cc1` [Compound 115, 5-Methyl-4-(2′-trifluoromethoxy-biphenyl-4-yloxymethyl)-furan-2-carboxylic acid], for which the figures for the Ki at human EP3 receptor, at human EP2 receptor and on human EP4 receptor were above 10 µM, above 10 µM and below 10 µM, respectively.
With `CC(=O)c1cccc(-c2ccc(OCc3cc(C(=O)O)oc3C)cc2)c1` [Compound 117, 4-(3′-Acetyl-biphenyl-4-yloxymethyl)-5-methyl-furan-2-carboxylic acid], the Ki is above 10 µM on human EP3 receptor, above 10 µM on human EP2 receptor and below 3.16 µM at human EP4 receptor.
On to `Cc1oc(C(=O)O)cc1COc1ccc(-c2ccc(F)cc2)cc1` [Compound 118, 4-(4′-Fluoro-biphenyl-4-yloxymethyl)-5-methyl-furan-2-carboxylic acid], for which the Ki was above 10 µM at human EP3 receptor, above 10 µM on human EP2 receptor and below 1 µM on human EP4 receptor.
On to `COc1ccc(-c2ccc(OCc3cc(C(=O)NS(=O)(=O)c4ccccc4)oc3C)cc2)[n+]([O-])c1` [Compound 135, N-{4-[4-(5-Methoxy-1-oxy-pyridin-2-yl)-phenoxymethyl]-5-methyl-furan-2-carbonyl}-benzenesulphonamide], for which the Ki is above 10 µM at human EP3 receptor, above 10 µM on human EP2 receptor and below 10 µM on human EP4 receptor.
For the compound `Cc1oc(C(=O)O)cc1COc1ccc(-c2ncccn2)cc1` [Compound 137, 5-Methyl-4-(4-pyrimidin-2-yl-phenoxymethyl)-furan-2-carboxylic acid], the figures for the Ki on human EP3 receptor, at human EP2 receptor and at human EP4 receptor were above 10 µM, above 10 µM and below 10 µM, respectively.
Regarding `Cc1oc(C(=O)NS(=O)(=O)c2ccccc2)cc1COc1ccc(-c2ncccn2)cc1` [Compound 138, N-[5-Methyl-4-(4-pyrimidin-2-yl-phenoxymethyl)-furan-2-carbonyl]-benzenesulphonamide], the Ki is above 10 µM at human EP3 receptor, above 10 µM on human EP2 receptor and below 3.16 µM on human EP4 receptor.
In the case of `COc1ccc(-c2ccc(OCc3cc(C(=O)O)oc3C)cc2)c(OC)c1` [Compound 140, 4-(2′,4′-Dimethoxy-biphenyl-4-yloxymethyl)-5-methyl-furan-2-carboxylic acid], the Ki on human EP3 receptor was above 10 µM; on human EP2 receptor it was above 10 µM; at human EP4 receptor, below 3.16 µM.
As for `COc1ccc(-c2ccc(OCc3cc(C(=O)NS(=O)(=O)c4ccccc4)oc3C)cc2)c(OC)c1` [Compound 141, N-[4-(2′,4′-Dimethoxy-biphenyl-4-yloxymethyl)-5-methyl-furan-2-carbonyl]-benzenesulphonamide], the Ki at human EP3 receptor is above 10 µM; on human EP2 receptor it was above 10 µM; on human EP4 receptor, below 0.316 µM.
On to `COc1ccc(-c2ccc(OCc3cc(C(=O)NS(=O)(=O)c4c(C)noc4C)oc3C)cc2)c(OC)c1` [Compound 142, 3,5-Dimethyl-isoxazole-4-sulphonic acid [4-(2′,4′-dimethoxy-biphenyl-4-yloxymethyl)-5-methyl-furan-2-carbonyl]-amide], for which the Ki on human EP3 receptor was above 10 µM; at human EP2 receptor, above 10 µM; at human EP4 receptor it was below 0.1 µM.
As to `COc1ccc(-c2ccc(OCc3cc(C(=O)O)oc3C)cc2)c(C)c1` [Compound 144, 4-(4′-Methoxy-2′-methyl-biphenyl-4-yloxymethyl)-5-methyl-furan-2-carboxylic acid], the Ki was above 10 µM at human EP3 receptor, above 10 µM on human EP2 receptor and below 1 µM at human EP4 receptor.
